From patent publication US20040071683A1, “Methods for treating pervasive development disorders” (priority 1999, published 2004)
No end group written: not given here.

Assays:
[1] = test system: children diagnosed with Autism; conditions: secretin given as diagnostic procedure during upper gastrointestinal endoscopy; Horvath et al. 1998; cited from earlier work
fecal chymotrypsin = assay: Fecal Chymotrypsin Test after secretin infusion in autistic children (Experiments 1 and 2); format: in vivo
Protocol: In this experiment, 16 children diagnosed as having autism were administered the following Fecal Chymotrypsin Test in accordance with an embodiment of the invention. First, approximately 2 grams of stool were collected from each child and placed in a sterile container (although it is to be understood that any quantity of stool may be collected, as 2 grams of stool is not a required amount). Each stool sample was then analyzed using, e.g., an enzymatic photospectrometry analysis as is known by those skilled in the art, to determine the level of fecal chymotrypsin in the stool. Although the enzymatic photospectrophotometry process is preferred, any suitable conventional method may be used for measuring the fecal chymotrypsin levels. The measured chymotrypsin levels of the 16 autistic children are illustrated in FIG. 13.
After determining the chymotrypsin levels of the stools, each of these levels were compared with threshold chymotrypsin levels to determine if the child was likely to benefit from secretin administration. By way of example, with the fecal chymotrypsin tests of the stool samples being performed at 30° C., normal levels of chymotrypsin are deemed to lie above 8.4 U/gram, whereas pathologically abnormal levels are deemed to lie below 4.2 U/gram. In addition, chymotrypsin levels between 8.4 U/gram and 4.2 U/gram are considered equivocal, and further testing of the individual's fecal chymotrypsin levels over a period of time should be performed.
(§1) For each of the 16 autistic children tested, a preferred secretin infusion process according to the present invention was performed involving the administering of 1 U/kg of body weight of Secretin-Ferring for a period of nine months at intervals of approximately 6 weeks. In addition, another CARS test was administered to each of the 16 autistic children 3 weeks post secretin administration to determine if their autism had changed post infusion.
A preferred secretin infusion process includes the initial step of prepping an arm of the candidate child with an IV injection of saline. A test dose of 1U of Secretin-Ferring is then administered to the child. Approximately one minute after infusion, the child is examined for signs of allergic reaction including rash, increased heart rate, and increase of blood pressure. […] Subsequently, each child receives a 1 U/kg of body weight infusion of Secretin-Ferring approximately every 6 weeks for 9 months. […]
In this experiment, 37 autistic children with abnormal fecal chymotrypsin levels were administered secretin over the course of 6 months using the secretin infusion process described above. Their fecal chymotrypsin (FC) levels were measured weekly using the fecal chymotrypsin test described above.

autistic children = assay: CARS (Childhood Autism Rating Scale) test pre- and post-secretin administration (Experiment 1); format: in vivo; conditions: 16 autistic children
Protocol: Upon determining that a given child was likely to benefit from secretin administration based on the results of the fecal chymotrypsin test, the child was administered a CARS (Childhood Autism Rating Scale) test prior to being scheduled for secretin infusion.
as §1
A preferred secretin infusion process includes the initial step of prepping an arm of the candidate child with an IV injection of saline. A test dose of 1U of Secretin-Ferring is then administered to the child. Approximately one minute after infusion, the child is examined for signs of allergic reaction including rash, increased heart rate, and increase of blood pressure. […] Subsequently, each child receives a 1 U/kg of body weight infusion of Secretin-Ferring approximately every 6 weeks for 9 months. It is to be understood that any commercially available form of secretin may be used.

In the case of “secretin (HSDGTFTSELSRLRDSARLQRLLQGLV; ends and bridges not checked; UniProt P63298 33-59, looked up) [a gastrointestinal peptide hormone]”, the “symptoms associated with Autism after secretin administration” value [1] is listed as “ameliorating the symptoms associated with Autism”, the “# Autistic Children w/ Equivocal FC levels” value (fecal chymotrypsin; 6 Months Post-Secretin Administration, of 37 autistic children (0 pre-secretin), equivocal between 8.4 and 4.2 U/gram) is listed as 2 and the “# Autistic Children w/ normal FC levels” value (fecal chymotrypsin; 6 Months Post-Secretin Administration, of 37 autistic children (0 pre-secretin), normal above 8.4 U/gram) is listed as 34. For the same substance, the “# Autistic Children w/ Abnormal FC levels” value (fecal chymotrypsin; 6 Months Post-Secretin Administration, of 37 autistic children (37 abnormal pre-secretin), abnormal below 4.2 U/gram) was 1, the “fecal chymotrypsin level post-secretin administration compared with pre-secretin” value (fecal chymotrypsin; each of 16 autistic children, approximately one week after first infusion of 1 U/kg Secretin-Ferring IV, FIG. 14 vs FIG. 13) was “increased” and the “CARS fear component post-secretin” value (autistic children; 3 weeks post infusion) was “increased”. For the same substance, the “CARS component scores post-secretin (all except fear)” value (autistic children; 3 weeks post infusion, FIGS. 2-12) was “demonstrated improvement” and the “overall CARS scores post-secretin vs pre-secretin” value (autistic children; approximately 3 weeks after first secretin administration, FIG. 1) was “overall decrease”.
